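Step 1: Grow cells in 96-well plates. Step 2: Expose to compound for 48 hours at 5 concentrations. Step 3: Interpolate endpoints linearly; if unreached, use highest concentration. GI50 marks 50% less growth. Definition used: TGI = concentration required for complete inhibition of growth.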
What was measured:
Assay in all cases: inhibition of tumour cell growth, NCI panel, 48 h
HT29 colon = test system: HT29 colon
MCF7 breast = test system: MCF7 breast
RPMI-8226 leukemia = test system: RPMI-8226 leukemia
OVCAR-4 ovarian = test system: OVCAR-4 ovarian
HS 578T breast = test system: HS 578T breast
SF-295 CNS = test system: SF-295 CNS
SNB-19 CNS = test system: SNB-19 CNS
BT-549 breast = test system: BT-549 breast
CCRF-CEM leukemia = test system: CCRF-CEM leukemia
NCI-H522 lung = test system: NCI-H522 lung

Structure (SMILES): Cc1c(C#N)c(=N)oc2ccccc12
- TGI (HT29 colon): > 100 µM
- TGI (MCF7 breast): > 100 µM
- TGI (RPMI-8226 leukemia): > 100 µM
- TGI (OVCAR-4 ovarian): > 100 µM
- TGI (HS 578T breast): > 100 µM
- TGI (SF-295 CNS): > 100 µM
- TGI (SNB-19 CNS): > 100 µM
- TGI (BT-549 breast): > 100 µM

Structure (SMILES): Cc1cn(CCOCCOC(=O)NC(CCCNC(N)=O)C(=O)O)c(=O)[nH]c1=O (stereo unspecified)
- TGI (HT29 colon): > 100 µM
- TGI (MCF7 breast): > 100 µM
- TGI (RPMI-8226 leukemia): > 100 µM
- TGI (OVCAR-4 ovarian): > 100 µM
- TGI (HS 578T breast): > 100 µM
- TGI (CCRF-CEM leukemia): > 100 µM
- TGI (SF-295 CNS): > 100 µM
- TGI (SNB-19 CNS): > 100 µM
- TGI (BT-549 breast): > 100 µM

Structure (SMILES): Cn1ccc2c(c1=O)C(=O)OC2(C)C
- TGI (HT29 colon): > 100 µM
- TGI (MCF7 breast): > 100 µM
- TGI (RPMI-8226 leukemia): > 100 µM
- TGI (OVCAR-4 ovarian): > 100 µM
- TGI (HS 578T breast): > 100 µM
- TGI (CCRF-CEM leukemia): > 100 µM
- TGI (SF-295 CNS): > 100 µM
- TGI (SNB-19 CNS): > 100 µM
- TGI (BT-549 breast): > 100 µM

Structure (SMILES): CCN1CCCn2c(=O)[nH]c3cc(Br)cc1c32
- TGI (HT29 colon): > 100 µM
- TGI (MCF7 breast): > 100 µM
- TGI (RPMI-8226 leukemia): > 100 µM
- TGI (OVCAR-4 ovarian): > 100 µM
- TGI (HS 578T breast): 97.2 µM
- TGI (CCRF-CEM leukemia): > 100 µM
- TGI (SF-295 CNS): > 100 µM
- TGI (SNB-19 CNS): > 100 µM
- TGI (BT-549 breast): > 100 µM

Structure (SMILES): Cc1nc2c(n1-c1ccccc1)C(=O)c1ccccc1C2=O
- TGI (HT29 colon): > 100 µM
- TGI (OVCAR-4 ovarian): > 100 µM
- TGI (CCRF-CEM leukemia): > 100 µM
- TGI (NCI-H522 lung): 71.8 µM
- TGI (SF-295 CNS): > 100 µM
- TGI (SNB-19 CNS): > 100 µM

Structure (SMILES): CC1(C)C=[N+]([O-])C(C)(C)N1O
- TGI (HT29 colon): > 10 µM
- TGI (MCF7 breast): > 10 µM
- TGI (RPMI-8226 leukemia): > 10 µM
- TGI (OVCAR-4 ovarian): > 10 µM
- TGI (CCRF-CEM leukemia): > 10 µM
- TGI (NCI-H522 lung): > 10 µM
- TGI (SF-295 CNS): > 10 µM
- TGI (SNB-19 CNS): > 10 µM
- TGI (BT-549 breast): > 10 µM

Structure (SMILES): Cc1nc2cccc(F)c2c(=O)n1-c1nnc(C(F)(F)F)s1
- TGI (HT29 colon): > 10 µM
- TGI (MCF7 breast): > 10 µM
- TGI (RPMI-8226 leukemia): > 10 µM
- TGI (OVCAR-4 ovarian): > 10 µM
- TGI (HS 578T breast): > 10 µM
- TGI (CCRF-CEM leukemia): > 10 µM
- TGI (NCI-H522 lung): > 10 µM
- TGI (SF-295 CNS): > 10 µM
- TGI (SNB-19 CNS): > 10 µM

Structure (SMILES): O=c1c2cc(Br)ccc2ncn1COCc1ccccc1
- TGI (HT29 colon): > 1 µM
- TGI (MCF7 breast): > 100 µM
- TGI (OVCAR-4 ovarian): > 100 µM
- TGI (CCRF-CEM leukemia): > 100 µM
- TGI (SF-295 CNS): > 100 µM
- TGI (SNB-19 CNS): > 100 µM

Structure (SMILES): CS(=O)(=O)[O-].CS(=O)(=O)[O-].NC1CCCCC1N.[Pt+4] (stereo unspecified)
- GI50 (HT29 colon): 62.3 µM
- TGI (HT29 colon): > 100 µM
- GI50 (MCF7 breast): 66.3 µM
- TGI (MCF7 breast): > 100 µM
- GI50 (RPMI-8226 leukemia): 17.7 µM
- TGI (RPMI-8226 leukemia): > 100 µM
- GI50 (OVCAR-4 ovarian): > 100 µM
- TGI (OVCAR-4 ovarian): > 100 µM
- GI50 (CCRF-CEM leukemia): 40.2 µM
- TGI (CCRF-CEM leukemia): > 100 µM
- GI50 (NCI-H522 lung): > 71.1 µM
- TGI (NCI-H522 lung): > 100 µM
- GI50 (SF-295 CNS): > 100 µM
- TGI (SF-295 CNS): > 100 µM
- GI50 (SNB-19 CNS): > 100 µM
- TGI (SNB-19 CNS): > 100 µM

Structure (SMILES): COc1cc2c(cc1OC)C(=O)/C(=C/c1ccc(O)cc1)CC2
- TGI (HT29 colon): > 10 µM
- TGI (MCF7 breast): > 10 µM
- TGI (RPMI-8226 leukemia): > 10 µM
- TGI (OVCAR-4 ovarian): > 10 µM
- TGI (HS 578T breast): > 10 µM
- TGI (CCRF-CEM leukemia): > 10 µM
- TGI (SF-295 CNS): > 10 µM
- TGI (SNB-19 CNS): > 10 µM
- TGI (BT-549 breast): > 10 µM

Structure (SMILES): O=P(O)(O)C=C=C1CCCCC1
- TGI (HT29 colon): > 100 µM
- TGI (MCF7 breast): > 100 µM
- TGI (OVCAR-4 ovarian): > 100 µM
- TGI (HS 578T breast): > 100 µM
- TGI (NCI-H522 lung): > 100 µM
- TGI (SF-295 CNS): > 100 µM
- TGI (SNB-19 CNS): > 100 µM

Structure (SMILES): C=C(C)[C@@H]1CC[C@]2(CO)CC[C@]3(C)[C@H](CC[C@@H]4[C@@](C)(CCCN)[C@H](C(=C)C)CC[C@]43C)[C@@H]12
- GI50 (HT29 colon): 1.58 µM
- TGI (HT29 colon): 3.77 µM
- GI50 (RPMI-8226 leukemia): 1.46 µM
- TGI (RPMI-8226 leukemia): 3.99 µM
- GI50 (CCRF-CEM leukemia): 1.84 µM
- TGI (CCRF-CEM leukemia): 4.76 µM

Structure (SMILES): CC(=O)NC(=O)NC1=NCCC(=O)N1CCc1c[nH]c2ccccc12
- TGI (HT29 colon): > 100 µM
- TGI (MCF7 breast): > 100 µM
- TGI (RPMI-8226 leukemia): > 100 µM
- TGI (OVCAR-4 ovarian): > 100 µM
- TGI (HS 578T breast): > 100 µM
- TGI (CCRF-CEM leukemia): > 100 µM
- TGI (NCI-H522 lung): > 100 µM
- TGI (SF-295 CNS): > 100 µM
- TGI (SNB-19 CNS): > 100 µM

Structure (SMILES): O=c1nc2ccc3sc4ccccc4c(=O)c3n2c(=O)[nH]1
- TGI (HT29 colon): > 100 µM
- TGI (MCF7 breast): > 100 µM
- TGI (RPMI-8226 leukemia): > 100 µM
- TGI (OVCAR-4 ovarian): > 100 µM
- TGI (HS 578T breast): > 100 µM
- TGI (CCRF-CEM leukemia): > 100 µM
- TGI (NCI-H522 lung): > 100 µM
- TGI (SF-295 CNS): > 100 µM
- TGI (SNB-19 CNS): > 100 µM

Structure (SMILES): CCN(CC)/[N+]([O-])=N/O
- TGI (HT29 colon): > 100 µM
- TGI (CCRF-CEM leukemia): > 100 µM
- TGI (NCI-H522 lung): > 100 µM
- TGI (SF-295 CNS): > 100 µM
- TGI (SNB-19 CNS): > 100 µM

Structure (SMILES): C=CCCCCn1c2ccccc2c2c(C)c3cnccc3c(C)c21
- TGI (HT29 colon): 25.7 µM
- TGI (MCF7 breast): 36.7 µM
- TGI (RPMI-8226 leukemia): 12.8 µM
- TGI (OVCAR-4 ovarian): 21.8 µM
- TGI (CCRF-CEM leukemia): 14.3 µM
- TGI (NCI-H522 lung): 18 µM
- TGI (SF-295 CNS): 26 µM
- TGI (SNB-19 CNS): 37.9 µM

Structure (SMILES): COc1ccc2c(c1)C(=O)C1CCC(=O)N1C2c1ccc2c(c1)OCO2 (stereo unspecified)
- TGI (HT29 colon): 16.9 µM
- TGI (RPMI-8226 leukemia): 12.9 µM
- TGI (OVCAR-4 ovarian): 47.9 µM
- TGI (HS 578T breast): 88.1 µM
- TGI (CCRF-CEM leukemia): 13.3 µM
- TGI (NCI-H522 lung): 21.6 µM
- TGI (SF-295 CNS): 36.3 µM
- TGI (SNB-19 CNS): 26.7 µM
- TGI (BT-549 breast): 11.6 µM

Structure (SMILES): COc1cc2oc(=O)cc(C)c2c(OC)c1OC(C)=O
- TGI (HT29 colon): > 100 µM
- TGI (MCF7 breast): > 100 µM
- TGI (RPMI-8226 leukemia): > 100 µM
- TGI (OVCAR-4 ovarian): > 100 µM
- TGI (HS 578T breast): > 100 µM
- TGI (CCRF-CEM leukemia): > 100 µM
- TGI (SF-295 CNS): > 100 µM
- TGI (SNB-19 CNS): > 100 µM

Reference: PubChem BioAssay (NCI)
